Reference: patent US8183284B2, “Compositions for reducing the incidence of drug induced arrhythmia” (Warner Chilcott Company, LLC, priority 2005, dated 2012)

Experiment: Clinical trials of oral azimilide: incidence of torsades de pointes (TdP)
Format: in vivo, patients
Procedure: Clinical trials are conducted where 5375 patients receive oral doses of azimilide. Patients are administered azimilide using a 3-day, twice daily loading regimen of 150-250 mg/day followed by a daily maintenance regimen (75-125 mg/day) of ½ of the loading dose, or are given daily azimilide (75, 100 or 125 mg/day) without a loading regimen. Overall about 75% of the patients are men and about 25% are women. Two cases of TdP are found in placebo-assigned patients and 54 azimilide-associated cases of TdP. Lack of aspirin use or lack of statin use is more frequent in azimilide patients with TdP. A total of 1191 (22%) patients (243 [16%] females and 948 [25%] males) are taking statins and aspirin as concomitant medication. Among the 54 patients (30 females and 24 males) who experienced TdP, 35% are on aspirin, 20% are on statins and only 11% are taking both a statin and aspirin as concomitant medication.

In the case of `CN1CCN(CCCCN2C(=O)CN(/N=C/c3ccc(-c4ccc(Cl)cc4)o3)C2=O)CC1` [azimilide], the “azimilide-associated cases of TdP” value (5375 patients receiving oral azimilide 75-125 mg/day, with or without 3-day loading regimen of 150-250 mg/day) was 54 cases, the “share of patients who experienced TdP that are on aspirin” value (among the 54 patients (30 females, 24 males) who experienced TdP, concomitant aspirin) was 35% and the “share of patients who experienced TdP that are on statins” value (among the 54 patients who experienced TdP, concomitant statins) was 20%. The “share of patients who experienced TdP that are taking both a statin and aspirin” value (among the 54 patients who experienced TdP, overall 1191 (22%) of patients take statins and aspirin) was 11%.
